Literature values, collected in patent US20160331794A1, “COMPOSITION FOR USE IN THE TREATMENT OF PERSISTENT COUGH” (ABOCA S.P.A SOCIETÁ AGRICOLA, priority 2013, published 2016).

What was measured:
cough = details: Lee et al. 2000; cited from earlier work
night cough in children = details: Yoder et al. 2006; cited from earlier work

| SMILES | efficacy in the treatment of coughs versus placebo (cough) | diminishing night cough in children versus placebo (night cough in children) |
| --- | --- | --- |
| COc1ccc2c(c1)[C@]13CCCC[C@@H]1[C@H](C2)N(C)CC3 [dextromethorphan] | only marginally better than the placebo | Neither dextromethorphan nor diphenhydramine have been found to be better than the placebo |
| CN(C)CCOC(c1ccccc1)c1ccccc1 [diphenhydramine] | – | Neither dextromethorphan nor diphenhydramine have been found to be better than the placebo |
